From patent US10745360B2, “Quinoxaline compounds, method for preparing the same and use thereof” (Development Center for Biotechnology, priority 2014, dated 2020)

Assays:
[1] = tested on: B-Raf^V600E mutant COLO205 colon cancer cell; test: Cell proliferation assay (CELLTITER 96), COLO205; type: cell-based; details: Homo sapiens, COLO 205; COLO205, 72 hours; read-out: Cytotoxicity (IC50 Ranking) COLO205 (B-Raf^V600E)
Procedure, shortened: (§1)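 Cells seeded overnight (A375 and COLO205 at 2000, SK-MEL-2 at 4000 cells/well), then exposed to increasing compound concentrations for 72 h at 37° C. Viability read by MTS absorbance at 490 nm after 4 h reagent; IC50 from curve fit of percent growth inhibition versus concentration.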

[2] = biological target: T1, B-Raf kinase (Homo sapiens, UniProt P15056); test: B-Raf kinase assay ([33P] incorporation into MEK1 K97R); type: biochemical; details: recombinant B-Raf, 8 μM ATP, 30 min, 30° C.; read-out: IC50 ranking against B-Raf kinase
T1 construct: purchased Upstate Biotechnology
Procedure, shortened: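 Recombinant B-Raf (5 ng) phosphorylating MEK1 K97R (500 ng) with 8 μM ATP plus [33P]ATP in Tris/HCl pH 7.5 buffer, 30 min at 30° C. Filter-captured 33P counted by scintillation; IC50 from 3-fold serial dilutions run in duplicate.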

[3] = biological target: T2, B-Raf^V600E kinase (Homo sapiens, UniProt P15056, V600E); test: B-Raf V600E kinase assay ([33P] incorporation into MEK1 K97R); type: biochemical; details: recombinant B-Raf^V600E, 8 μM ATP, 30 min, 30° C.; read-out: IC50 ranking against B-Raf^V600E kinase
T2 construct: purchased Upstate Biotechnology
Procedure, shortened: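 Recombinant B-Raf V600E (5 ng) phosphorylating MEK1 K97R (500 ng) with 8 μM ATP plus [33P]ATP in Tris pH 7.5 buffer, 30 min at 30 °C. Filter-bound 33P counted by scintillation; IC50 from 3-fold dilution series in duplicate.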

[4] = tested on: SK-MEL-2 melanoma cell with wild type B-Raf (B-Raf^wt) and NRAS^Q61R mutation; test: Cell proliferation assay (CELLTITER 96), SK-MEL-2; type: cell-based; details: Homo sapiens; SK-MEL-2, 72 hours; given as bound; read-out: Cytotoxicity (IC50 Ranking) SK-MEL-2 (NRAS^Q61R, B-Raf^wt)
Procedure, shortened: as §1

[5] = biological target: T3, C-Raf kinase (Homo sapiens, UniProt P04049); test: C-Raf kinase assay ([33P] incorporation into MEK1 K97R); type: biochemical; details: recombinant C-Raf, 8 μM ATP, 30 min, 30° C.; read-out: IC50 ranking against C-Raf kinase
T3 construct: purchased Upstate Biotechnology
Procedure, shortened: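 Recombinant C-Raf (2 ng) phosphorylating MEK1(K97R) with 8 μM ATP plus [33P]ATP, pH 7.5 Tris buffer, 30 min at 30° C. Acid-stopped, filter-captured 33P counted by scintillation; IC50 from 3-fold dilution series run in duplicate.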

[6] = tested on: B-Raf^V600E mutant A375 melanoma cell; test: Cell proliferation assay (CELLTITER 96), A375; type: cell-based; details: Homo sapiens, A-375; A375, 72 hours; read-out: Cytotoxicity (IC50 Ranking) A375 (B-Raf^V600E)
Procedure, shortened: as §1

T1 sequence (P15056 whole entry): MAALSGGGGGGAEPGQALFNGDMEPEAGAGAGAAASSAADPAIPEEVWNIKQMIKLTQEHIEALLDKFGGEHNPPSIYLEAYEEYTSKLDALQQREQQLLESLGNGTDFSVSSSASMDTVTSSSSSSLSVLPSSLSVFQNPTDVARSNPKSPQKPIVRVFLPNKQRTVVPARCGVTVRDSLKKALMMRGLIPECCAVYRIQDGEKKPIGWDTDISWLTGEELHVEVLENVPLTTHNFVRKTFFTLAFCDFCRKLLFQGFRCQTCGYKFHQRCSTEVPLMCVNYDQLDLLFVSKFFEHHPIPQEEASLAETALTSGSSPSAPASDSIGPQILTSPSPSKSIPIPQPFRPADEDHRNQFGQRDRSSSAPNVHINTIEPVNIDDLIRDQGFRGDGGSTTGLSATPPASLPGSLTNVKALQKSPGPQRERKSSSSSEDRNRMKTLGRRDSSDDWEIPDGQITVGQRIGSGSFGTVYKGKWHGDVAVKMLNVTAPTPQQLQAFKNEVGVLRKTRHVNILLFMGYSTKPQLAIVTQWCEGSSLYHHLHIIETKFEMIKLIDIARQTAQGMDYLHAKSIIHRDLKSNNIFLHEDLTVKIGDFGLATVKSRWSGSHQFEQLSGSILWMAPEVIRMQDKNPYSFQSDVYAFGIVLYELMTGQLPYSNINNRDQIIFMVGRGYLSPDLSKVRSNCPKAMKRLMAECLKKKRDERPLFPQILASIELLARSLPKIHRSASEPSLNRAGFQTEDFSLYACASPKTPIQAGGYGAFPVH
T3 sequence (P04049 whole entry): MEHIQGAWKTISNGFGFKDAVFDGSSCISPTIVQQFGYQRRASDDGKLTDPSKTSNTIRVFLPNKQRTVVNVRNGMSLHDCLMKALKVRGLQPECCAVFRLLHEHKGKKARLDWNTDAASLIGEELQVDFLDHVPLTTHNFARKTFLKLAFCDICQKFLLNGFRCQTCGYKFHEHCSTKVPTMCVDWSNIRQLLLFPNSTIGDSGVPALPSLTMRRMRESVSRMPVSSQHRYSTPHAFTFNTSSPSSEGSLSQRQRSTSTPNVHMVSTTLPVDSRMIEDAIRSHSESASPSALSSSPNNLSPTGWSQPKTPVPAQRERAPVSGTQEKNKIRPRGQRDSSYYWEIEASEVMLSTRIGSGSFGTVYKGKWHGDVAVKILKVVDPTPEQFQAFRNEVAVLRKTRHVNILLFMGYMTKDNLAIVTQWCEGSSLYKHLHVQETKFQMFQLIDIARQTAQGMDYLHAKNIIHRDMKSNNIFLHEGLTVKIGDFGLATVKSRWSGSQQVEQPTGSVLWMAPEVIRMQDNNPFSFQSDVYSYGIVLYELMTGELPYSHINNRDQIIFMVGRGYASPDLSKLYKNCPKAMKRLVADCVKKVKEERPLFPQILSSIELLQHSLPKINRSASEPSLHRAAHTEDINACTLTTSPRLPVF
T2 sequence (P15056 whole entry V600E): as the sequence (P15056 whole entry) above, with V600E counted along it

In the case of `CCCS(=O)(=O)Nc1ccc(C)c(Nc2ccc3ncc(OC)nc3c2C#N)c1` [compound 40, N-(3-(5-cyano-3-methoxyquinoxalin-6-ylamino)-4-methylphenyl)propane-1-sulfonamide], the IC50 [1] is reported as 1000 to 10000 nM, the IC50 [2] is reported as 300 to 1000 nM and the IC50 [3] is reported as 300 to 1000 nM. For the same compound, the IC50 [4] was > 10000 nM, the IC50 [5] was 300 to 1000 nM and the IC50 [6] was 1000 to 10000 nM.
Compound `COc1cnc2ccc(Nc3cc(NS(C)(=O)=O)ccc3F)c(C#N)c2n1` [compound 41, N-(3-(5-cyano-3-methoxyquinoxalin-6-ylamino)-4-fluorophenyl)methanesulfonamide] has an IC50 [1] of 1000 to 10000 nM, an IC50 [2] of 1000 to 10000 nM and an IC50 [3] of 1000 to 10000 nM. The IC50 [4] was > 10000 nM, the IC50 [5] was 1000 to 10000 nM and the IC50 [6] was 1000 to 10000 nM.
In the case of `CCCS(=O)(=O)N(CC)c1ccc(F)c(Nc2ccc3ncc(OC)nc3c2C#N)c1F` [compound 42, N-(3-(5-cyano-3-methoxyquinoxalin-6-ylamino)-2,4-difluorophenyl)-N-ethylpropane-1-sulfonamide], the IC50 [1] is reported as < 300 nM, the IC50 [2] is reported as < 300 nM and the IC50 [3] is reported as < 300 nM. The IC50 [4] was > 10000 nM, the IC50 [5] was < 300 nM and the IC50 [6] was < 300 nM.
For `CCCS(=O)(=O)N(C)c1ccc(F)c(Nc2ccc3ncc(OC)nc3c2C#N)c1F` [compound 43, N-(3-(5-cyano-3-methoxyquinoxalin-6-ylamino)-2,4-difluorophenyl)-N-methylpropane-1-sulfonamide], the IC50 [1] was < 300 nM, the IC50 [2] was < 300 nM and the IC50 [3] was < 300 nM. For the same compound, the IC50 [4] was > 10000 nM, the IC50 [5] was < 300 nM and the IC50 [6] was < 300 nM.
In the case of `CCCS(=O)(=O)Nc1cccc(Nc2ccc3ncc(OC)nc3c2C#N)c1C` [compound 44, N-(3-(5-cyano-3-methoxyquinoxalin-6-ylamino)-2-methylphenyl)propane-1-sulfonamide], the IC50 [1] is reported as 300 to 1000 nM, the IC50 [2] is reported as < 300 nM and the IC50 [3] is reported as 300 to 1000 nM. The IC50 [4] was > 10000 nM, the IC50 [5] was < 300 nM and the IC50 [6] was 300 to 1000 nM.
With `CCCS(=O)(=O)Nc1ccc(F)c(Nc2ccc3ncc(OC)nc3c2C#N)c1Cl` [compound 46, N-(2-chloro-3-(5-cyano-3-methoxyquinoxalin-6-ylamino)-4-fluorophenyl)propane-1-sulfonamide] the IC50 [1] was < 300 nM, the IC50 [2] was < 300 nM and the IC50 [3] was < 300 nM. For the same compound, the IC50 [4] was > 10000 nM, the IC50 [5] was < 300 nM and the IC50 [6] was < 300 nM.
With `COc1cnc2ccc(Nc3c(F)ccc(NS(=O)(=O)c4ccccc4)c3Cl)c(C#N)c2n1` [compound 47, N-(2-chloro-3-(5-cyano-3-methoxyquinoxalin-6-ylamino)-4-fluorophenyl)benzenesulfonamide] the IC50 [1] was < 300 nM, the IC50 [2] was < 300 nM and the IC50 [3] was < 300 nM. The IC50 [4] was > 10000 nM, the IC50 [5] was < 300 nM and the IC50 [6] was < 300 nM.
With `CCCS(=O)(=O)Nc1ccc(F)c(Nc2ccc3ncc(N4CCOCC4)nc3c2C#N)c1Cl` [compound 48, N-(2-chloro-3-(5-cyano-3-morpholinoquinoxalin-6-ylamino)-4-fluorophenyl)propane-1-sulfonamide] the IC50 [1] was < 300 nM, the IC50 [2] was < 300 nM and the IC50 [3] was < 300 nM. The IC50 [4] was > 10000 nM, the IC50 [5] was < 300 nM and the IC50 [6] was < 300 nM.
For `N#Cc1c(Nc2c(F)ccc(NS(=O)(=O)c3ccccc3)c2Cl)ccc2ncc(N3CCOCC3)nc12` [compound 49, N-(2-chloro-3-(5-cyano-3-morpholinoquinoxalin-6-ylamino)-4-fluorophenyl)benzenesulfonamide], the IC50 [1] was < 300 nM, the IC50 [2] was < 300 nM and the IC50 [3] was < 300 nM. For the same compound, the IC50 [4] was > 10000 nM, the IC50 [5] was < 300 nM and the IC50 [6] was < 300 nM.
In the case of `CCCS(=O)(=O)Nc1cccc(Nc2ccc3ncc(OC)nc3c2C#N)c1C#N` [compound 50, N-(2-cyano-3-(5-cyano-3-methoxyquinoxalin-6-ylamino)phenyl)propane-1-sulfonamide], the IC50 [1] is reported as < 300 nM, the IC50 [2] is reported as < 300 nM and the IC50 [3] is reported as < 300 nM. For the same compound, the IC50 [4] was > 10000 nM, the IC50 [5] was < 300 nM and the IC50 [6] was < 300 nM.
